Experimental data reported in article PMC10537105, “Derivatives Incorporating Acridine, Pyrrole, and Thiazolidine Rings as Promising Antitumor Agents” (Molecules, 2023).

Key:
MCF-7 = assay: MTT assay, MCF-7 cells; type: cell-based, human; conditions: Homo sapiens, MCF7, 72 h of incubation, read-out: IC50 values ± SD, MCF-7
Excerpt: (§1) The impact of acridine spiro derivatives 6–10 (Figure 13) on the metabolic activity of various tumor cell lines HCT-116 (human colorectal carcinoma), Jurkat (human leukemia cells), HeLa (human cervical adenocarcinoma), MDA-MB-231, and MCF-7 (human breast adenocarcinoma), and normal cell lines COS-7 (monkey kidney cells) and BJ-5ta (skin fibroblasts) was investigated using the MTT assay. This assay measures the conversion of yellow 3-(4,5-dimethylthiazol-2-yl)-2,5-diphenyltetrazolium bromide (MTT) to insoluble purple formazan by metabolically active cells. The antiproliferative activities of the tested compounds were determined based on the results from the MTT assay, and the inhibitory concentration values (IC50) are presented in Table 5.
(§2) The human cancer cell lines employed in this study were sourced from reputable institutions, including the American Type Culture Collection (ATCC; Manassas, VA, USA) and the European Collection of Authenticated Cell Cultures (ECACC, Salisbury, UK). Specifically, HeLa (93021013, human cervical adenocarcinoma), HCT116 (CCL-247TM, human colorectal carcinoma), and Jurkat (88042803, human leukemic T-cell lymphoma) were cultured in RPMI 1640 medium (Biosera, Kansas City, MO, USA). In contrast, MCF-7 (HTB-22TM, human breast adenocarcinoma, ER+), MDA-MB-231 (HTB-26TM, human breast adenocarcinoma, ER−), and COS-7 (CRL-1651TM, kidney fibroblasts) were nurtured in high-glucose Dulbecco’s Modified Eagle Medium (DMEM) supplemented with sodium pyruvate (Biosera). Furthermore, BJ-5ta (CRL-4001TM, human dermal fibroblasts) was cultured in a composite medium of high-glucose DMEM and M199 (4:1) (Biosera), supplemented with Hygromycin B (0.01 mg/mL; Merck, Darmstadt, Germany). All culture media were enriched with a 10% fetal bovine serum (FBS; Gibco, Thermo Scientific, Rockford, IL, USA) and an antibiotic/antimycotic solution (Merck) to ensure optimal growth conditions. The cells were meticulously maintained within a humidified environment containing 5% CO2 at 37 °C. Regular screenings for mycoplasma contamination were conducted using Hoechst 33342 staining (Merck), confirming the integrity of the cell lines.
(§3) To assess the antiproliferative impact of the synthesized compounds 6–10, their half-maximal inhibitory concentration (IC50) and the MTT colorimetric assay were employed. MDA-MB-231 and MCF-7 cells were seeded into 96-well microplates (SARSTEDT, Nümbrecht, Germany) at a density of 5 × 10^3 cells per well. After 24 h of cell seeding, various concentrations (100, 50, and 10 µmol/L) of acridine derivatives 6–10 were introduced, alongside cisplatin (utilized as a reference) at concentrations of 5, 10, 20, 50, and 100 µmol/L. Subsequent to 24, 48, and 72 h of treatment, the cells in each well underwent incubation with MTT (5 mg/mL, Sigma-Aldrich Chemie, Steinheim, Germany) for 4 h at 37 °C in the dark. During this period, mitochondrial oxidoreductases metabolized MTT, forming insoluble formazan. Following this, 100 µL of SDS (10% […]) was added to dissolve the formazan crystals, and the cells were incubated for an additional 12 h. Absorbance at 540 nm was measured using the automated Cytation™ 3 Cell Imaging Multi-Mode Reader (Biotek, Winooski, VT, USA). Each test was performed in triplicate, and three independent experiments were conducted to ensure precision and reliability.

MDA-MB-231 = assay: MTT assay, MDA-MB-231 cells; type: cell-based, human; conditions: Homo sapiens, MDA-MB-231, 72 h of incubation, read-out: IC50 values ± SD, MDA-MB-231
Excerpt: as §1, §2, §3

Jurkat = assay: MTT assay, Jurkat cells; type: cell-based, human; conditions: Homo sapiens, Jurkat; MTT, 72 h of incubation; read-out: IC50 values ± SD, Jurkat
Excerpt: as §1, §2, §3

BJ-5ta = assay: MTT assay, BJ-5ta normal fibroblasts; type: cell-based, human; conditions: Homo sapiens, Fibroblast, 72 h of incubation, normal cell line, read-out: IC50 values ± SD, BJ-5ta
Excerpt: as §1, §2, §3

HeLa = assay: MTT assay, HeLa cells; type: cell-based, human; conditions: Homo sapiens, HeLa, 72 h of incubation, read-out: IC50 values ± SD, HeLa
Excerpt: as §1, §2, §3

COS-7 = assay: MTT assay, COS-7 normal cells; type: cell-based, monkey; conditions: Primates, COS-7, 72 h of incubation, normal cell line, read-out: IC50 values ± SD, COS-7
Excerpt: as §1, §2, §3

HCT-116 = assay: MTT assay, HCT-116 cells; type: cell-based, human; conditions: Homo sapiens, HCT-116; MTT, 72 h of incubation; read-out: IC50 values ± SD, HCT-116
Excerpt: as §1, §2, §3

SMILES	IC50 (MCF-7) [µM]	IC50 (MDA-MB-231) [µM]	IC50 (Jurkat) [µM]	IC50 (HeLa) [µM]	melting point	IC50 (HCT-116) [µM]	IC50 (BJ-5ta) [µM]	IC50 (COS-7) [µM]
CCCC1S/C(=N\N2C(=O)C(C#N)=CC23c2ccccc2Nc2ccccc23)N(c2ccc([N+](=O)[O-])cc2)C1=O (centres unmarked) [10e, 1′-{[(2Z)-3-(4-Nitrophenyl)-4-oxo-5-propyl-1,3-thiazolidin-2-ylidene]amino}-5′-oxo-1′,5′-dihydro-10H-spiro[acridine-9,2′-pyrrole]-4′-carbonitrile]	91.3 ± 3.74	> 100	> 100	> 100	249 to 251 °C (dec.)	> 100	> 100	> 100
COc1ccc(N2C(=O)CS/C2=N\N2C(=O)C(C#N)=CC23c2ccccc2Nc2ccccc23)cc1 [7b, 1′-{[(2Z)-3-(4-Methoxyphenyl)-4-oxo-1,3-thiazolidin-2-ylidene]amino}-5′-oxo-1′,5′-dihydro-10H-spiro[acridine-9,2′-pyrrole]-4′-carbonitrile]	30.8 ± 5.22	> 100	> 100	> 100	207 to 210 °C (dec.)	> 100	> 100	> 100
CCCC1S/C(=N\N2C(=O)C(C#N)=CC23c2ccccc2Nc2ccccc23)N(c2ccccc2)C1=O (centres unmarked) [10a, 5′-Oxo-1′-{[(2Z)-4-oxo-3-phenyl-5-propyl-1,3-thiazolidin-2-ylidene]amino}-1′,5′-dihydro-10H-spiro[acridine-9,2′-pyrrole]-4′-carbonitrile]	> 100	> 100	> 100	> 100	238 to 240 °C (dec.)	> 100	> 100	> 100
CCCC1S/C(=N\N2C(=O)C(C#N)=CC23c2ccccc2Nc2ccccc23)N(c2ccc(OC)cc2)C1=O (centres unmarked) [10b, 1′-{[(2Z)-3-(4-Methoxyphenyl)-4-oxo-5-propyl-1,3-thiazolidin-2-ylidene]amino}-5′-oxo-1′,5′-dihydro-10H-spiro[acridine-9,2′-pyrrole]-4′-carbonitrile]	> 100	> 100	> 100	> 100	247 to 250 °C (dec.)	> 100	> 100	> 100

Continued, in another order:

IC50 (MCF-7) [µM]	IC50 (MDA-MB-231) [µM]	IC50 (Jurkat) [µM]	IC50 (HeLa) [µM]	melting point	IC50 (HCT-116) [µM]	SMILES	IC50 (BJ-5ta) [µM]	IC50 (COS-7) [µM]
> 100	> 100	> 100	> 100	219 to 224 °C (dec.)	> 100	COc1ccc(N2C(=O)C(C)S/C2=N\N2C(=O)C(C#N)=CC23c2ccccc2Nc2ccccc23)cc1 (centres unmarked) [9b, 1′-{[(2Z)-3-(4-Methoxyphenyl)-5-methyl-4-oxo-1,3-thiazolidin-2-ylidene]amino}-5′-oxo-1′,5′-dihydro-10H-spiro[acridine-9,2′-pyrrole]-4′-carbonitrile]	> 100	> 100
> 100	> 100	31.8 ± 5.65	> 100	197 to 199 °C (dec.)	18.9 ± 4.71	N#CC1=CC2(c3ccccc3Nc3ccccc32)N(NC(=S)Nc2ccc(F)cc2)C1=O [6d, 3-{4′-Cyano-5′-oxo-1′,5′-dihydro-10H-spiro[acridine-9,2′-pyrrol]-1′-yl}-1-(4-fluorophenyl)thiourea]	> 100	> 100
> 100	> 100	> 100	> 100	235 to 239 °C (dec.)	> 100	CC1S/C(=N\N2C(=O)C(C#N)=CC23c2ccccc2Nc2ccccc23)N(c2ccc(F)cc2)C1=O (centres unmarked) [9d, 1′-{[(2Z)-3-(4-Fluorophenyl)-5-methyl-4-oxo-1,3-thiazolidin-2-ylidene]amino}-5′-oxo-1′,5′-dihydro-10H-spiro[acridine-9,2′-pyrrole]-4′-carbonitrile]	> 100	> 100
